Laboratory results taken from patent publication US6824967B2, “Method of preparing dye solution, and methods of producing silver halide emulsion and silver halide photographic material” (Fuji Photo Film Co., Ltd., priority 2002, dated 2004).

Tests used:
[1] = pKa printed beside the base in Table 1; cited from earlier work
[2] = Degree of dissolution of dye, visual observation after ultrasonic irradiation; assay type: physicochemical; set-up: key: good: when it was in a completely dissolved state; poor: when it left some residue; failed: when it was in a hardly dissolved state; conditions: 1.0 g dye in 200 ml 1:1 methanol/water, ultrasonic 30 min at 25° C.
[3] = pH value of dye solution measured with a pH-meter; assay type: physicochemical; conditions: 1.0 g dye in 200 ml 1:1 methanol/water
[4] = 1,8-diazabicyclo-7-undecene, 1.0 equivalents to dye
[5] = N,N-diisopropylethylamine, 1.0 equivalents to dye
[6] = pyridine, 1.0 equivalents to dye
[7] = triethanolamine, 1.0 equivalents to dye
[8] = triethanolamine, 1.2 equivalents to dye
[9] = triethylamine, 0.8 equivalents to dye
[10] = triethylamine, 1.0 equivalents to dye
[11] = 2,4,6-trimethylpyridine, 1.0 equivalents to dye
[12] = N-methylmorpholine, 1.0 equivalents to dye

| SMILES | Base (pKa) [1] | Degree of dissolution [2, 4] | Degree of dissolution ([2]; base absent) | Degree of dissolution [2, 7] | Degree of dissolution [2, 8] | Degree of dissolution [2, 9] | Degree of dissolution [2, 10] | pH Value of dye solution [3, 4] | pH Value of dye solution ([3]; base absent) | pH Value of dye solution [3, 7] | pH Value of dye solution [3, 8] | pH Value of dye solution [3, 9] | pH Value of dye solution [3, 10] | also measured |
| --- | --- | --- | --- | --- | --- | --- | --- | --- | --- | --- | --- | --- | --- | --- |
| Cc1cc(C)nc(C)c1 [2,4,6-Trimethylpyridine] | 2,4,6-trimethylpyridine (7.43) |  |  |  |  |  |  |  |  |  |  |  |  |  |
| O=C(O)C[n+]1c(C=C2Sc3ccc(Cl)cc3N2CCCS(=O)(=O)[O-])sc2ccc(Cl)cc21 [Dye S-14] |  | good | failed | good | good | poor | good | 10.8 | 6.1 | 7.3 | 7.4 | 6.9 | 9.4 | Degree of dissolution [2, 5]: good; Degree of dissolution [2, 6]: failed; pH Value of dye solution [3, 5]: 10.1; pH Value of dye solution [3, 6]: 5.7 |
| O=C(O)C[n+]1c(C=C2Sc3ccc(Cl)cc3N2CCCS(=O)(=O)[O-])sc2cc(Cl)sc21 [Dye S-37] |  | good | failed | good | good | poor | good | 11.0 | 6.2 | 7.4 | 7.5 | 7.1 | 9.6 | Degree of dissolution [2, 11]: good; Degree of dissolution [2, 12]: good; pH Value of dye solution [3, 11]: 7.2; pH Value of dye solution [3, 12]: 7.1 |
| O=C(O)C[n+]1c(C=C2Sc3ccc(Br)cc3N2CCCS(=O)(=O)[O-])sc2ccsc21 [Dye S-39] |  |  | failed | good | good | poor | good |  | 6.3 | 7.5 | 7.6 | 7.4 | 9.7 |  |
| CN1CCOCC1 [N-methylmorpholine] | N-methylmorpholine (7.38) |  |  |  |  |  |  |  |  |  |  |  |  |  |
